This passage reports MIC results from DBAASP.

SMILES strings stand for the structures. ≈ marks a conversion by molar mass, not a printed value. Where “and” joins values, the source holds several entries; their conditions need not be identical. Identical values can stand only once.

Common to all, as to assay: ≥ marks a high value that may be exact or a test limit, other limits are often not marked, values filed in µg/mL are converted to µM
Assay [1] concerns Salmonella enterica serovar typhimurium MS7953s.
Assay [2] concerns Salmonella enterica subsp. enterica serovar Typhimurium ATCC 14028s.
Assay [3] relates to Aeromonas salmonicida 99-1.
Assay [4] deals with Aeromonas salmonicida 97-4.
Assay [5] has as its system Staphylococcus aureus C623.
The test system of assay [6] is Staphylococcus epidermidis C621.
The test system of assay [7] is Pseudomonas aeruginosa K799.
Assay [8] concerns Candida albicans C627.
For assay [9], the system named is Escherichia coli DC2.
For assay [10], the system named is Escherichia coli UB1005.
Assay [11] has as its system Escherichia coli CGSC 4908.
Assay [12] deals with Pseudomonas aeruginosa Z61.
The subject of assay [13] is Escherichia coli ATCC 25922.
Assay [14] relates to Lacticaseibacillus rhamnosus 1.9021.
Assay [15] deals with Lacticaseibacillus rhamnosus 1.0936.
For assay [16], the system named is Escherichia coli K88.
Assay [17] relates to Staphylococcus epidermidis ATCC 12228.
Assay [18] relates to Lacticaseibacillus rhamnosus 1.0911.
The test system of assay [19] is Salmonella enterica subsp. enterica serovar Choleraesuis CVCC 503.
Assay [20] has as its system Pseudomonas aeruginosa PAO1.
The subject of assay [21] is Staphylococcus aureus ATCC 29213.
Assay [22] has as its system Lacticaseibacillus rhamnosus 8014.
The test system of assay [23] is Streptococcus agalactiae BNCC 185941.
Assay [24] relates to Salmonella enterica subsp. enterica serovar Pullorum C79-13.
Assay [25] concerns Staphylococcus aureus ATCC 43300.
The subject of assay [26] is Pseudomonas aeruginosa ATCC 27853.
For assay [27], the system named is Escherichia coli O157:H7 CICC 21530.
Assay [28] has as its system Salmonella enterica subsp. enterica serovar Typhimurium ATCC 14028.
The subject of assay [29] is Salmonella typhimurium SL1344.
Assay [30] concerns Escherichia coli MC1061.
Assay [31] deals with Salmonella enterica subsp. enterica serovar Enteritidis MH91989.
In assay [32] the test system is Escherichia coli JW0013.
Assay [33] concerns Escherichia coli O157:H7.
Assay [34] concerns Escherichia coli JJ2487.
In assay [35] the test system is Escherichia coli J2210.

Regarding `CC[C@H](C)[C@H](NC(=O)[C@H](CC(C)C)NC(=O)CNC(=O)[C@H](Cc1cnc[nH]1)NC(=O)[C@@H](NC(=O)[C@H](Cc1c[nH]c2ccccc12)NC(=O)[C@H](CCCCN)NC(=O)CNC(=O)[C@@H](NC(=O)[C@H](Cc1cnc[nH]1)NC(=O)[C@H](Cc1cnc[nH]1)NC(=O)[C@@H](NC(=O)CNC(=O)[C@H](Cc1cnc[nH]1)NC(=O)[C@H](Cc1ccccc1)NC(=O)[C@H](CC(C)C)NC(=O)[C@H](CC(C)C)NC(=O)CNC(=O)[C@H](CC(C)C)NC(=O)[C@@H](N)Cc1ccccc1)C(C)C)C(C)C)[C@@H](C)CC)C(=O)N[C@@H](Cc1cnc[nH]1)C(=O)NCC(=O)N[C@@H](Cc1cnc[nH]1)C(=O)N[C@@H](Cc1cnc[nH]1)C(C)=O` [FLGLLFHGVHHVGKWIHGLIHGHH], the MIC was 5.82 µM (≈ 16 µg/mL) in assay [1]; 23.3 µM (≈ 64 µg/mL) in assay [2]; 23.3 µM (≈ 64 µg/mL) in [3]; 23.3 µM (≈ 64 µg/mL) in assay [4]; 2.91 µM (≈ 7.99 µg/mL) in assay [5]; 2.91 µM (≈ 7.99 µg/mL) in assay [6]. The MIC in assay [7] was determined as 11.6 µM (≈ 32 µg/mL); in assay [8], 23.3 µM (≈ 64 µg/mL); in assay [9], 11.6 µM (≈ 32 µg/mL); in [10], 5.82 µM (≈ 16 µg/mL); in [11] it was 11.6 µM (≈ 32 µg/mL); in assay [12], 2.91 µM (≈ 7.99 µg/mL).

In the case of `CC(C)C[C@H](NC(=O)CNC(=O)[C@H](CC(C)C)NC(=O)[C@H](Cc1c[nH]c2ccccc12)NC(=O)[C@H](CC(C)C)NC(=O)CNC(=O)[C@H](CC(C)C)NC(=O)[C@H](CCCN=C(N)N)NC(=O)[C@@H](N)CCCN=C(N)N)C(=O)N[C@@H](CCCN=C(N)N)C(=O)N[C@@H](CCCN=C(N)N)C(N)=O` [RRLGLWLGLRR], the MIC in assay [13] was 4 µM and 8 µM; in assay [14], not below 128 µM; in assay [15], not below 128 µM; in assay [16] it was 2 µM (≈ 2.79 µg/mL); in [17], 128 µM (≈ 179 µg/mL); in assay [18], not below 64 µM. Also, the MIC in assay [19] is not below 128 µM; in [20], 8 µM (≈ 11.2 µg/mL); in assay [21] it was 16 µM (≈ 22.3 µg/mL); in [22], not below 128 µM; in [23], not below 128 µM; in [24], 2 µM (≈ 2.79 µg/mL). For the same compound, the MIC in [25] amounted to 16 µM (≈ 22.3 µg/mL); in assay [26], 4 µM (≈ 5.58 µg/mL); in [27] it was 8 µM (≈ 11.2 µg/mL); in [28], 32 µM (≈ 44.6 µg/mL).

As for `CC[C@H](C)[C@H](NC(=O)[C@H](CCCN=C(N)N)NC(=O)[C@H](CCCN=C(N)N)NC(=O)[C@@H]1CCCN1C(=O)[C@@H]1CCCN1C(=O)[C@H](CCCN=C(N)N)NC(=O)[C@@H]1CCCN1C(=O)[C@H](CCCN=C(N)N)NC(=O)[C@@H]1CCCN1C(=O)[C@H](CCCCN)NC(=O)[C@H](Cc1ccc(O)cc1)NC(=O)[C@@H]1CCCN1C(=O)[C@H](CCCN=C(N)N)NC(=O)[C@H](CCCCN)NC(=O)[C@H](CC(=O)O)NC(=O)[C@@H](N)C(C)C)C(=O)N[C@@H](Cc1ccc(O)cc1)C(=O)N[C@@H](CC(N)=O)C(=O)N[C@@H](CCCN=C(N)N)C(N)=O` [VDKRPYKPRPRPPRRIYNR], the MIC in [29] was found to be 0.158 µM (≈ 0.39 µg/mL); in assay [30], 0.0609 µM (≈ 0.15 µg/mL); in assay [31], 0.158 µM (≈ 0.39 µg/mL); in assay [32], 0.337 µM (≈ 0.83 µg/mL); in [33], 0.974 µM (≈ 2.4 µg/mL); in assay [34], 0.158 µM (≈ 0.39 µg/mL). The same compound yielded an MIC in assay [35] of 0.122 µM (≈ 0.3 µg/mL).

In general, MIC refers to the lowest concentration that inhibits growth of the organism.
